For one data set, the system named is diabetic subjects. The conditions noted are these: cited from earlier work; for plasma glucose peak level / time of plasma glucose peak: diabetic subjects; for change in insulin concentration: in vivo.
The test system of a further data set is healthy subjects. The settings on record: 50 g; cited from earlier work.
The subject of another data set is ApoE (−/−) mice. As to the kind of experiment: Study 14: plasma total cholesterol, retinol, tocopherol. It counts as in vivo. The settings on record: 0.5 g/kg in 0.08% cholesterol diet vs same diet without statin; 14 weeks. The source says:
The objective of this study was to investigate the effect of a statin (Mevacor) on cholesterol levels. Each of three groups of ApoE (−/−) mice was fed one of three diets, each diet containing a different cholesterol level (i.e., 0, 0.4, and 0.8 g/kg). A fourth group was fed the diet containing 0.8 g/kg of cholesterol with the further inclusion of 0.5 g/kg of a statin (i.e., Mevacor).

For data set [1], the target named is T1, protein tyrosine phosphatase-1B (Homo sapiens, UniProt P18031).
T1 sequence (P18031 1-435): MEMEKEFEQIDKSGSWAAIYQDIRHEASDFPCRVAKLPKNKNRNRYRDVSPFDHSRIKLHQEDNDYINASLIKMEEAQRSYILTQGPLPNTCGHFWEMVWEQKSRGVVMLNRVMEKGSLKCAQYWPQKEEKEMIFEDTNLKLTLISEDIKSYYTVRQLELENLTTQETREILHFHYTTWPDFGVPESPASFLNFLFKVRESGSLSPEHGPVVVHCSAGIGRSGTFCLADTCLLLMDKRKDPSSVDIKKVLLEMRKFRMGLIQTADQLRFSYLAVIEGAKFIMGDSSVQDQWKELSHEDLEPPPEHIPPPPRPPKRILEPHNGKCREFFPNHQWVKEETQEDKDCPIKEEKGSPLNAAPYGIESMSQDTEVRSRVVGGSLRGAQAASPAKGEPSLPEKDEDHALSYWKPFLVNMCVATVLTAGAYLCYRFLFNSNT
The conditions noted are these: cited from earlier work.

Another data set has as its target T2, glucose transporter (Homo sapiens, UniProt P11166).
T2 construct: various catechins tested on glucose transport from erythrocytes
T2 sequence (P11166 1-492): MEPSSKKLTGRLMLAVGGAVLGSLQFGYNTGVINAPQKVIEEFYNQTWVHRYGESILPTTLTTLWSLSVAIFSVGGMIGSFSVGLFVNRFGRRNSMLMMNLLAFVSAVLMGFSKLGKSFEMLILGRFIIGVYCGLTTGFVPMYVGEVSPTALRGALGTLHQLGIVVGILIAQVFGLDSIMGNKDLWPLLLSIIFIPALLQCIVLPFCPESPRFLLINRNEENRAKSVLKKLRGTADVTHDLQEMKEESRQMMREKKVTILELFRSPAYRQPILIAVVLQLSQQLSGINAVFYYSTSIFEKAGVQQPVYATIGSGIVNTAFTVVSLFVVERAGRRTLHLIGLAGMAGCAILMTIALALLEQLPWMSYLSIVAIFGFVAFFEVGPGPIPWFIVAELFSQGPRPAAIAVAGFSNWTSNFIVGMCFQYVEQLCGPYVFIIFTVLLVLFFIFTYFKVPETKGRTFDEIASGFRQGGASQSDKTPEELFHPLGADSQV
The settings on record: cited from earlier work.

The conditions of data set [2]: 1.5 mmole ingested, cited from earlier work.
The next data set deals with alloxan diabetic rats. The conditions noted are these: after six weeks; extract 100 mg/kg; cited from earlier work.
The next data set relates to 3T3-L1 cells. The conditions noted are these: 240 nmol/L; cited from earlier work.
Data set [3] concerns STZ-induced diabetic rats. The conditions noted are these: following intravenous insulin tolerance testing; cited from earlier work.
The next data set relates to Type 2 diabetics. The settings on record: cited from earlier work.
The subject of the next data set is Wild Type C57BL/6J mice. Kind of data set: Study 2/5: increasing 18:2 PUFA, insulin sensitivity. It counts as in vivo. The settings on record: 18:2 at 2%, 4%, 6% en; WT mice. The source says:
Studies 2 and 5 were combined (n=18) where we compared TYPE B Leptr (−/−) (Study2) with the Wild Type mouse (Study 5) used in the backcross for Leptr (−/−), i.e., C57BL/6J. Here, we also examined the effects of food restriction on TYPE B (which over eat like TYPE A because neither have leptin receptors) and added the design of increasing 18:2 PUFA (increments at 2%, 4%, 6% en) while assessing the insulin sensitivity response. […] They had lower glucose than TYPE A, better insulin testing, yet became obese and insulin resistant, glucose intolerant, etc. […] This was the second clue (after n 3 FA in Study 1) that the type and mass of fatty acid intake can have a big influence on mouse insulin dynamics.

The test system of another data set is adults. The conditions noted are these: estimated; cited from earlier work.
In the next data set the test system is Zucker fa/fa rats. The conditions noted are these: 100 mg/kg for 3-weeks; vs control obese rats; cited from earlier work.

In the case of `OC[C@H]1O[C@@](CO)(O[C@H]2O[C@H](CO)[C@@H](O)[C@H](O)[C@H]2O)[C@@H](O)[C@@H]1O` [sucrose], in the data set on diabetic subjects, the “plasma glucose peak level” value is 237 ± 12 mg/dL, the “time of plasma glucose peak” value is listed as not above 60 min and the change in insulin concentration is 59.3 ± 12 µU/mL. In the data set with healthy subjects, the blood glucose peak is 143.3 ± 8.8 mg/dL and the “time of blood glucose peak” value was 30 min.

Regarding `CC[C@H](C)C(=O)O[C@H]1C[C@@H](C)C=C2C=C[C@H](C)[C@H](CC[C@@H]3C[C@@H](O)CC(=O)O3)[C@H]21` [statin], the “liver, aortal, and plasma cholesterol levels” value with ApoE (−/−) mice is on record as “significant reduction”.

On to methylhydroxychalcone polymer [MHCP], for which the “inhibition of protein tyrosine phosphatase-1B” value in [1] is “inhibits”.

Regarding `O=C(O[C@@H]1Cc2c(O)cc(O)cc2O[C@@H]1c1cc(O)c(O)c(O)c1)c1cc(O)c(O)c(O)c1` [EGCG, epigallocatechin gallate], the “increase of affinity for the glucose transporter over EGC” value at glucose transporter is given as 2 to 4 orders of magnitude. Also, in data set [2], the Peak maximum is given as 1.3 μmol. 1-1 and the “detection in the urine” value is reported as “not detected”. Also, in [2] (ten healthy volunteers), the “elimination T1/2” value is given as 3.9 h.

Regarding insulin: insulin, the “decrease in fasting blood glucose” value in the data set on alloxan diabetic rats was -183.1 mg/dL. The “greatest glucose uptake relative to maximum uptake observed with BE” value with 3T3-L1 cells is listed as 2.7 times.

Regarding `O=C(O)CCCCC1CCSS1` (stereo not shown) [LA, Lipoic acid], in data set [3], the “reduction in the area under the glucose curve” value was 13%. The “reduction of lactate and pyruvate after oral glucose loading” value in the data set on Type 2 diabetics (1200 mg LA (oral) for 4-wks) is on record as 45%. In the data set on Type 2 diabetics (600, 1200 and 1800 mg/d oral), the “improvement of insulin sensitivity” value is reported as 17%. For the same molecule, the “oral dose reported to be safe” value in the data set with Type 2 diabetics (given as 3 doses of 600 mg) is given as “up to 1800 mg/d”.

For the molecule `CCCCC/C=C\C/C=C\CCCCCCCC(=O)O` [18:2, linoleic acid], the sensitivity to insulin entry with Wild Type C57BL/6J mice is “appeared to increase sensitivity to insulin”.

Consider `OC[C@H]1O[C@H](OC[C@H]2OC(O)(CO)[C@@H](O)[C@@H]2O)[C@H](O)[C@@H](O)[C@@H]1O` (stereo partly shown) [isomaltulose], for which the “minimum effect dose (mental concentration)” value in the data set on adults is recorded as “more than 5 g”. Besides, in the data set on diabetic subjects, the “plasma glucose peak level” value was 195 ± 14 mg/dL, the “time of plasma glucose peak” value was 120 min and the change in insulin concentration is 41.1 ± 7.4 µU/mL. In the data set on healthy subjects, the blood glucose peak was 110.9 ± 4.9 mg/dL and the “time of blood glucose peak” value is 60 min.

On to `C[C@@H]([C@H](C)O)[C@H](N)C(=O)O` [ID-1101, 4-hydroxyisoleucine], for which the hyperinsulinemia result in the data set on Zucker fa/fa rats is “reduced hyperinsulinemia”.

(Values after patent US8697630B2, “Method for lowering insulin resistance” (Nestec S.A., priority 2005, dated 2014).)
